Reference: US20130052172A1, “METHODS FOR DIAGNOSING AND TREATING CARDIAC DEFECTS” (priority 2011, published 2013)
“Also recorded” adds a separate entry of the source. Positions of bridges follow the written chain, without caps; N, C: chain ends. Non-standard residues stand in square brackets, D forms with d. Residues, ends and D or L forms follow the SMILES beside them. *: point of attachment. Ileψ(thiazoline)Cys = CC[C@H](C)[C@H](N)C1=N[C@H](C(=O)*)CS1; dOrn = NCCC[C@@H](N)C(=O)O

Tests used:
rat heart = conditions: pharmacologic preconditioning (Baker 2007, 2008); cited from earlier work
isolated hearts = assay: In vitro global ischemia/reperfusion of isolated perfused hearts, infarct size and recovery of LVDP; set-up: species or system rat; conditions: for effect of inhibitor alone on cardioprotection: inhibitor perfused prior to ischemia/reperfusion, no vancomycin
Protocol: (§1) For in vitro ischemia/reperfusion studies, hearts were perfused retrogradely, as described previously in Baker, J. et al. (Am. J. Physiol. Heart Circ. Physiol., 2000), the entirety of which is incorporated herein by reference. Briefly, hearts were perfused with modified Krebs-Henseleit buffer (120 mM NaCl, 25 mM NaHCO3, 4.7 mM KCl, 1.2 mM KH2PO4, 1.20 mM MgSO4, 11 mM glucose, and 1.8 mM CaCl2) bubbled with 95% O2-5% CO2 for a 40-minute stabilization period and subjected to 25 minutes of global no-flow ischemia, followed by 180 minutes of reperfusion. Before use, all perfusion fluids were filtered through cellulose acetate membranes with a pore size of 5.0 μm to remove particulate matter. Hearts were kept in temperature-controlled chambers to maintain myocardial temperature at 37° C. A balloon connected to a pressure transducer was inserted into the left ventricle to monitor cardiac function. For some experiments, hearts were stabilized for 25 minutes and then perfused with vancomycin or a mixture of antibiotics for 15 minutes before ischemia/reperfusion. During the initial 40 minute reperfusion period, recovery of mechanical function was measured as left ventricular developed pressure (LVDP) under steady-state conditions and expressed as a percentage of preischemic LVDP. At the end of the 3 hour reperfusion period, hearts were processed and stained with 2,3,5-triphenyltetrazolium chloride dye for IS determination.

Dahl S rats = assay: In vivo regional myocardial ischemia/reperfusion, infarct size (IS/AAR); set-up: species or system rat; conditions: vancomycin 15 mg/kg/day for 72 hours, thrombopoietin i.v. 15 minutes prior to ischemia
From the text: (§2) An anesthetized rat model was used for in vivo ischemia/reperfusion studies using the general surgical protocol and determination of infarct size (IS) described in “K(ATP) opener-induced delayed cardioprotection: involvement of sarcolemmal and mitochondrial K(ATP) channels, free radicals and MEK½” (Gross, E. et al., J. Mol. Cell. Cardiol. 35, 985-992, 2003), the entirety of which is incorporated herein by reference. Briefly, following anesthesia, a tracheotomy for artificial ventilation was performed, with the left common carotid artery cannulated for blood pressure and heart rate measurements. A thoracotomy was performed at the fifth intercostal space, the pericardium was excised, and a silk ligature was placed distal to the left atrial appendage that spanned to the sternal portion of the left ventricle, which included the left anterior descending coronary artery. Occlusion of the area described [area at risk (AAR)] was created by placing ends of the ligature through a polypropylene tube and fixing the snare to the epicardial surface with a hemostat. After 30 min, the hemostat was released to reperfuse the AAR. Following 2 h of reperfusion, the ligature was again occluded, and the AAR was determined by patent-blue negative staining. The heart was then excised, cross-sectioned into 4 to 5 slices, and separated into normal zone and AAR. Pieces were incubated in 1% 2,3,5-triphenyltetrazolium chloride to determine IS. The heart was then incubated overnight in 10% formaldehyde, and infarcted tissue was dissected from the AAR. IS was expressed as a percentage of the AAR (IS/AAR). Leptin (0.12 μg/kg) was administered intravenously as a bolus at 24 and 12 h before ischemia. Amino acids were administered intravenously as a bolus at 24 and 12 hours before ischemia or dissolved in the drinking water and given 48 hours before ischemia.

rats = assay: Myocardial ischemia/reperfusion by the protocol of example 3 (model not given); type: in vivo, rat; conditions: Dahl S rats, single antibiotic in drinking water (60 or 120 mg/kg/day)
From the text: In the following example, methods for assaying myocardial infarction in vitro and in vivo in rats as determined by ischemia/reperfusion studies are described.
as §2, §1

leptin = assay: Plasma cytokine analysis (leptin); type: in vivo, rat; conditions: Dahl S rats fed 15 ml/rat/d for 14 d, with or without leptin
Protocol: The concentration of cytokines in blood of rats treated with vancomycin was quantified to identify antibiotic-induced changes. […] Blood samples were kept on ice for 30 min and then centrifuged at 1000 g for 10 min at 4° C. to obtain plasma. Plasma samples were then analyzed to determine the concentration of 23 cytokines (Eve Technologies, Calgary, AB, Canada). Antibiotic was administered continuously via drinking water as described in example 1.

In the case of “erythropoietin: pharmacologic preconditioning agent, cited from Baker 2007 (darbepoetin alfa paper)”, the “reduction in IS” value (rat heart) is listed as 39%.

With `C[S+]([O-])c1ccc(-c2nc(-c3ccncc3)c(-c3ccc(F)cc3)[nH]2)cc1` (centres unmarked) [SB 203580] the “effect of inhibitor alone on cardioprotection” value (from here on “effect of inhibitor alone”) (isolated hearts) was “no effect on cardioprotection” and the “effect on ability of vancomycin to reduce myocardial necrosis and enhance ventricular function” value (isolated hearts; p38 MAPK inhibitor 15 μM perfused prior to ischemia/reperfusion) was “abolished the ability of vancomycin to reduce myocardial necrosis and to enhance ventricular function”.

For “thrombopoietin: agent of classical pharmacologic preconditioning; human thrombopoietin (Baker 2008)”, the “reduction in IS” value (rat heart) is listed as 34% and the “decrease in infarct size” value (Dahl S rats) is listed as 25%.

For neomycin, the “effect on myocardial infarct size” value (rats) was “reduce myocardial infarct size”.

In the case of “leptin: 16-kDa, 167-aa polypeptide synthesized and secreted into the circulation primarily by white adipocytes”, the “effect on leptin levels in blood” value (leptin) is reported as “no effect on leptin levels”, the “effect on IS / myocardial infarction” value (isolated hearts; Dahl S rats fed 15 ml/rat/d for 14 d, with or without leptin 0.12 μg/kg) is reported as “no effect on IS” and the “effect of leptin in the absence of vancomycin pretreatment” value (isolated hearts; leptin 0.12 μg/kg i.v. at 24 and 12 h before ischemia/reperfusion) is reported as “had no effect”. For the same compound, the “effect on probiotic juice-induced cardioprotection” value (isolated hearts; leptin 0.12 μg/kg i.v. at 24 and 12 h before ischemia/reperfusion, probiotic juice-fed rats) was “abolished probiotic juice-induced cardioprotection; also recorded: reversed” and the “effect on decrease in IS and increase in recovery of LVDP conferred by vancomycin” value (isolated hearts; leptin 0.12 μg/kg i.v. at 24 and 12 h before ischemia/reperfusion, vancomycin-treated rats) was “abolished the decrease in IS and increase in recovery of LVDP conferred by vancomycin treatment; also recorded: reversed cardioprotection by vancomycin”.

In the case of `[H]/N=C(/N)N[C@H]1[C@H](O)[C@@H](O)[C@H](O[C@@H]2O[C@@H](C)[C@](O)(C=O)[C@H]2O[C@@H]2O[C@@H](CO)[C@H](O)[C@@H](O)[C@@H]2NC)[C@@H](N/C(N)=N\[H])[C@@H]1O` [streptomycin], the “effect on myocardial infarct size” value (rats) is reported as “reduce myocardial infarct size”.

For polymyxin B, the “effect on myocardial infarct size” value (rats) was “did not induce protection”.

In the case of `COc1ccc(Cl)cc1C(=O)NCCc1ccc(S(=O)(=O)NC(=O)NC2CCCCC2)cc1` [Glibenclamide, glibenclamide], the “effect on ability of vancomycin to reduce myocardial necrosis and enhance ventricular function” value (isolated hearts; KATP channel blocker 3 μM perfused prior to ischemia/reperfusion) is reported as “abolished the ability of vancomycin to reduce myocardial necrosis and to enhance ventricular function” and the “effect of inhibitor alone” value (isolated hearts) is reported as “no effect on cardioprotection”.

With `COc1cccc(-c2cc(=O)c3ccccc3o2)c1N` [PD98059] the “effect of inhibitor alone” value (isolated hearts) was “no effect on cardioprotection” and the “effect on ability of vancomycin to reduce myocardial necrosis and enhance ventricular function” value (isolated hearts; p42/44 MAPK inhibitor 10 μM perfused prior to ischemia/reperfusion) was “abrogated the ability of vancomycin to reduce myocardial necrosis and to enhance ventricular function”.

For `N#C/C(=C/c1ccc(O)c(O)c1)C(=O)NCc1ccccc1` [AG-490], the “effect on ability of vancomycin to reduce myocardial necrosis and enhance ventricular function” value (isolated hearts; JAK-2 inhibitor 1 μM perfused prior to ischemia/reperfusion, hearts of vancomycin-treated rats) was “partially abolished the ability of vancomycin to reduce myocardial necrosis and to enhance ventricular function” and the “effect of inhibitor alone” value (isolated hearts) was “no effect on cardioprotection”.

In the case of `CC[C@H](C)[C@H](N)C1=N[C@H](C(=O)N[C@@H](CC(C)C)C(=O)N[C@H](CCC(=O)O)C(=O)N[C@H](C(=O)N[C@H]2CCCCNC(=O)[C@H](CC(N)=O)NC(=O)[C@@H](CC(=O)O)NC(=O)[C@H](Cc3cnc[nH]3)NC(=O)[C@@H](Cc3ccccc3)NC(=O)[C@H]([C@@H](C)CC)NC(=O)[C@@H](CCCN)NC2=O)[C@@H](C)CC)CS1` [bacitracin] ({Ileψ(thiazoline)Cys}-L[dE]IK[dOrn]I[dF]H[dD]N; lactam 4-C), the “effect on myocardial infarct size” value (rats) is reported as “did not induce protection”.
